BindingDB's records for doi:10.7270/Q2251GJ9 (The Scripps Research Institute Molecular Screening Center, 2007)

Target: Sphingosine 1-phosphate receptor 1 (Homo sapiens, UniProt P21453)
Assay: direct activation of human S1P1 – cell-based, agonist mode, 60K MLSMR set, dose response (AID 468)
[1] = inactive by the depositor's call

Sequence of Sphingosine 1-phosphate receptor 1 (P21453 whole entry): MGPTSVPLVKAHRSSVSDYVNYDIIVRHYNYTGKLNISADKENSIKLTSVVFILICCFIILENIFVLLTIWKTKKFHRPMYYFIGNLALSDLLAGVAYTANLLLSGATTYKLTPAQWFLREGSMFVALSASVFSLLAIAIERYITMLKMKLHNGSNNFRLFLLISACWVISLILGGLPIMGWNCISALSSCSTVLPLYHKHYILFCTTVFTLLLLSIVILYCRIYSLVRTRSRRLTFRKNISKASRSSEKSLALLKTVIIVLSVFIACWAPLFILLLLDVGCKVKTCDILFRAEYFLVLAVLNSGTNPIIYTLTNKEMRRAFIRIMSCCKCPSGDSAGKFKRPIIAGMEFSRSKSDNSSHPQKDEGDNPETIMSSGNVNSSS

| SMILES | EC50 [µM] | EC50 [1] [µM] |
| --- | --- | --- |
| Cc1ccnc(SCC(=O)Nc2sc3c(c2C#N)CCCC3)n1 [MLS000077260] | 4.76 | – |
| c1ccc(CN2CCN(c3ncnc4c3[nH]c3ccccc34)CC2)cc1 [MLS000078384] | 4.18 | – |
| Fc1ccc2[nH]c3c(N4CCSCC4)ncnc3c2c1 [MLS000078401] | 6.12 | – |
| O=C(c1ccco1)N1CCN(c2ncnc3c2[nH]c2ccc(Br)cc23)CC1 [MLS000078404] | – | 13.9 |
| NC(=Nc1nc2c(c(=O)[nH]1)CCCC2)Nc1ccccc1 [MLS000078734] | 7.23 | – |
| CCN(CC)C(=O)Oc1ccc2c(=O)c(-c3ccc(OC)cc3)coc2c1 [MLS000083046] | – | 12.9 |
| COc1ccc(-c2cc(C(=O)NC3CCCC3)no2)cc1OC [MLS000087117] | – | 15.8 |
| COc1ccc(OC)c(-c2cc(C(=O)Nc3c(C)nn(Cc4ccc(Cl)cc4)c3C)no2)c1 [MLS000087191] | – | 20.8 |
| CCc1ccc(NC(=O)c2cc(-c3ccco3)on2)cc1 [MLS000087211] | 6.93 | – |
| Cc1ccc(NC(=O)c2cc(-c3ccco3)on2)cc1C [MLS000087214] | 4.99 | – |
| CCc1c(C)sc(NC(=O)c2cc(-c3ccco3)on2)c1C#N [MLS000087225] | 4.14 | – |
| Cc1nn(Cc2ccc(Cl)c(Cl)c2)c(C)c1NC(=O)c1cc(-c2ccco2)on1 [MLS000087229] | 5.63 | – |
| Cc1nn(Cc2ccc(Cl)cc2)c(C)c1NC(=O)c1cc(-c2ccco2)on1 [MLS000087233] | – | 13.8 |
| COc1ccc(NC(=O)c2cc(-c3cccs3)on2)cc1OC [MLS000087261] | 5.79 | – |
| COc1ccc2c(c1)CCc1c(C(=O)NC3CCCCC3)noc1-2 [MLS000087437] | – | 95 |
| COc1ccc2c(c1)CCc1c(C(=O)Nc3ccc(OC)c(OC)c3)noc1-2 [MLS000087452] | 3.3 | – |
| CCOc1ccc(C(C)=O)cc1-n1c(O)c2c(c1O)C1C=CC2O1 [MLS000087730] | 10.2 | – |
| O=C(Nc1nc(-c2nc3ccccc3s2)cs1)c1ccc(S(=O)(=O)N2CCOCC2)cc1 [MLS000087900] | – | 17.6 |
| Cn1c(SCC(=O)Nc2ccc(N3CCOCC3)c(Cl)c2)nnc1-c1ccccc1 [MLS000089171] | 2.22 | – |
| CCCC(=O)Nc1ccc(-c2nc3cc(C)c(C)cc3o2)cc1 [MLS000089940] | – | 10.2 |
| O=S(=O)(NCc1cn2ccsc2n1)c1ccc(Oc2ccccc2)cc1 [MLS000094195] | 6.07 | – |
| CCCC(=O)N1CCN(c2ccc(NC(=O)c3cc4ccccc4o3)cc2Cl)CC1 [MLS000096729] | 8.85 | – |

| SMILES | EC50 [µM] | EC50 [1] [µM] |
| --- | --- | --- |
| CCCc1ccc(OCc2nc(-c3ccc(NC(=O)c4ccco4)cc3)no2)cc1 [MLS000097352] | 4.39 | – |
| O=C(Nc1nc(-c2ccc(Cl)s2)cs1)c1ccncc1 [MLS000098514] | > 3 | – |
| O=C(Nc1ccc(S(=O)(=O)NCc2ccco2)cc1)c1ccc2ccccc2n1 [MLS000098663] | 8.51 | – |
| CCC(=O)Nc1ccc2c(c1)C(=O)N(C1CCCCC1)C2=O [MLS000099936] | > 30 | – |
| Cc1cccc(-n2ncc3c(N(C)C4CCCCC4)ncnc32)c1 [MLS000100814] | – | 95 |
| O=C(c1ccc(Cl)s1)N1CCN(c2nc3ccccc3s2)CC1 [MLS000100900] | > 30 | – |
| Cc1nc2ccc3nc(NC(=O)C4COc5ccccc5O4)sc3c2s1 (stereo not drawn) [MLS000100909] | 4.9 | – |
| CCc1nnc(NC(=O)C2CCCCC2)s1 [MLS000104554] | > 95 | – |
| CCCOc1ccc(S(=O)(=O)NCc2ccc(OC)cc2)cc1 [MLS000104592] | – | 23.1 |
| CC(=O)Oc1ccc(-n2c(O)c3c(c2O)C2(C)C=CC3(C)O2)cc1 [MLS000107813] | 11.8 | – |
| COc1ccc(NC(=O)c2cnn3c(C(F)(F)F)cc(-c4ccco4)nc23)cc1OC [MLS000109325] | > 95 | – |
| Cc1cc2nc(-c3ccc(NC(=O)C(C)C)cc3)oc2cc1C [MLS000109473] | 3.04 | – |
| COc1ccc(CN=O)cc1COc1ccc(NC(C)=O)cc1 [MLS000111933] | > 95 | – |
| COC(=O)Cc1sc(=O)[nH]c1Nc1ccccc1 [MLS000111966] | > 95 | – |
| Cc1cc(C=Nn2cnnc2)c(C)n1-c1ccc(OCc2ccc(F)cc2)cc1 [MLS000112167] | 0.552 | – |
| Cc1cc(C=Nn2cnnc2)c(C)n1-c1ccc(OCc2ccccc2F)cc1 [MLS000112180] | 1.08 | – |
| CC(C)(C)SCCNS(=O)(=O)c1ccccc1 [MLS000112230] | > 95 | – |
| COc1ccc(-c2nc(-c3ccc(NC(=O)c4ccncc4)cc3)no2)cc1OC [MLS000115086] | 0.946 | – |
| CC(=O)Nc1ccc(S(=O)(=O)N2CCN(c3cccc(C)c3C)CC2)cc1 [MLS000115810] | – | 15.4 |
| CSc1ccc(S(=O)(=O)Nc2ccc3c(c2)OCCO3)cc1 [MLS000115922] | – | 13.6 |
| O=C(Nc1c(F)cc(F)cc1Br)c1cc(-c2ccc(O)cc2)on1 [MLS000116264] | 2.37 | – |
| CCCc1cc(C(=O)Nc2sc(C)c(CC)c2C#N)no1 [MLS000116385] | 3.73 | – |

| SMILES | EC50 [µM] | EC50 [1] [µM] |
| --- | --- | --- |
| CCCc1cc(C(=O)Nc2sc3c(c2C#N)CCC3)no1 [MLS000116386] | > 95 | – |
| CC(C)Cc1cc(C(=O)Nc2cc(Br)ccc2O)no1 [MLS000116399] | – | 20.2 |
| CC(C)Cc1cc(C(=O)Nc2sc3c(c2C#N)CCCC3)no1 [MLS000116410] | > 10 | – |
| Cc1nn(Cc2ccc(Cl)c(Cl)c2)c(C)c1NC(=O)c1cc(CC(C)C)on1 [MLS000116412] | 9.16 | – |
| CCCOC(=O)c1[nH]c2c(c1C)C(=O)CC(c1cc(OC)c(OC)c(OC)c1)C2 (stereo not drawn) [MLS000116504] | – | 10.9 |
| CCC(C)OC(=O)c1[nH]c2c(c1C)C(=O)CC(c1ccc(N(C)C)cc1)C2 (stereo not drawn) [MLS000116530] | – | 18.7 |
| O=C(C1CCN(S(=O)(=O)c2cccc3cccnc23)CC1)N1CCN(c2ccc(Cl)cc2)CC1 [MLS000116819] | – | 17.3 |
| Cc1noc(C)c1S(=O)(=O)N(CC(=O)Nc1ccc2c(c1)OCO2)c1ccc(C(C)C)cc1 [MLS000117405] | > 95 | – |
| Cc1noc(C)c1S(=O)(=O)N(CC(=O)Nc1ccc2c(c1)OCCO2)c1ccc(C(C)C)cc1 [MLS000117406] | – | 14.2 |
| Cc1nc2ccccc2c2oc(C(=O)NCC3COc4ccccc4O3)cc12 (stereo not drawn) [MLS000118430] | 8.06 | – |
| COc1ccc(CNC(=O)c2cc3c(C)nc4ccccc4c3o2)c(OC)c1 [MLS000118441] | 4.2 | – |
| Cc1csc(NC(=O)C(Cc2ccccc2)n2cccc2)n1 (stereo not drawn) [MLS000119019] | 2.77 | – |
| O=C(Nc1ncc(Br)s1)C(Cc1ccccc1)n1cccc1 (stereo not drawn) [MLS000119027] | 2.23 | – |
| CCSc1nnc(NC(=O)C(Cc2ccccc2)n2cccc2)s1 (stereo not drawn) [MLS000119034] | > 30 | – |
| Cc1ccc(Cl)cc1N1CCN(C(=O)C2CCN(c3nnc(-n4cccc4)s3)CC2)CC1 [MLS000119702] | – | 34.4 |
| COc1ccc(S(=O)(=O)Cc2ccc(C(=O)N3CCN(c4cccc(C)c4C)CC3)o2)cc1 [MLS000120226] | – | 14 |
| COc1ccc(S(=O)(=O)Cc2ccc(C(=O)N3CCN(c4ccc(Cl)cc4)CC3)o2)cc1 [MLS000120227] | – | 13.7 |
| Cc1cccc(N2CCN(C(=O)C3CCCN(S(=O)(=O)c4cccc5cccnc45)C3)CC2)c1C (stereo not drawn) [MLS000120299] | – | 16.3 |
| COc1ccc2c(c1)-c1nc(NC(=O)c3cccs3)sc1CC2 [N-(8-methoxy-4,5-dihydrobenzo[e][1,3]benzothiazol-2-yl)-2-thiophenecarboxamide] | – | 17.3 |
| Cc1ccc(-c2csc(N3CCC(NS(=O)(=O)c4ccc5c(c4)OCCO5)CC3)n2)cc1 [N-[1-[4-(4-methylphenyl)-1,3-thiazol-2-yl]piperidin-4-yl]-2,3-dihydro-1,4-benzodioxine-6-sulfonamide] | 1.65 | – |
| CCC(C)c1ccc2oc(-c3ccc(NC(=O)c4nnc[nH]4)cc3)nc2c1 (stereo not drawn) [N-[4-(5-sec-butyl-1,3-benzoxazol-2-yl)phenyl]-1H-1,2,4-triazole-3-carboxamide] | > 10 | – |
| c1ccc(CNc2ncnc3ccccc23)cc1 [N-benzylquinazolin-4-amine] | 4.81 | – |

| SMILES | EC50 [µM] | EC50 [1] [µM] |
| --- | --- | --- |
| Clc1ccc(CCNc2[nH]cnc3ncnc2-3)cc1 [SMR000017624] | 9.86 | – |
| CC1Cc2ccccc2N1c1ncnc2nc[nH]c12 (stereo not drawn) [SMR000017649] | 3.78 | – |
| O=S1(=O)C=C(Sc2nc3cc(Cl)ccc3o2)c2ccccc21 [SMR000019512] | > 30 | – |
| CCCc1ccc(Oc2c[nH]nc2-c2ccc(O)c(C)c2O)cc1 [SMR000024172] | 12.9 | – |
| Cc1oc(-c2ccccc2)nc1Cn1cccc1C1=NC(c2ccccc2)CO1 (stereo not drawn) [SMR000026251] | 0.922 | – |
| c1ccc2c(c1)CCN(c1ncnc3c1[nH]c1ccccc13)C2 [SMR000039631] | 1.19 | – |
| CCC(NC(C)c1ccccc1)=C1C(=O)N(C)C(=O)N(C)C1=O (stereo not drawn) [SMR000043429] | 13.6 | – |
| Cc1ccccc1CS(=O)(=O)c1nnc([C@H](CC(C)C)NC(=O)OC(C)(C)C)o1 [SMR000044673] | 7.51 | – |
| Cc1ccc2c(c1)[nH]c1c(N3CCN(Cc4ccccc4)CC3)ncnc12 [SMR000044826] | 3.27 | – |
| COC(=O)CS(=O)(=O)c1nnc([C@H](Cc2ccccc2)NC(=O)OC(C)(C)C)o1 [SMR000046685] | 6.99 | – |
| CC(C)(C)OC(=O)N[C@@H](Cc1ccccc1)c1nnc(S(=O)(=O)Cc2ccccc2)o1 [SMR000047857] | 4.1 | – |
| CCc1cc(-c2n[nH]cc2-c2ccc3c(c2)OCO3)c(O)cc1O [SMR000060132] | 6 | – |
| Cc1cc(C(=O)CSc2nnc(-c3cccnc3)n2-c2ccccc2F)c(C)n1C [SMR000064090] | 0.817 | – |
| Clc1ccc(-n2nnnc2Sc2ncnc3sccc23)cc1 [SMR000066808] | 6.39 | – |
| C=CCOC(=O)c1[nH]c2c(c1C)C(=O)CC(c1cc(OC)c(OC)c(OC)c1)C2 (stereo not drawn) [SMR000093465] | – | 10.7 |
| Cc1ccccc1OCCCCc1c(C)n[nH]c1C [SMR000103095] | 6.74 | – |
| COc1ccccc1OCCCCCc1c(C)n[nH]c1C [SMR000103101] | 9.84 | – |
| Cc1cccc(OCCCCc2c(C)n[nH]c2C)c1 [SMR000103102] | – | 11.5 |
| Cc1cccc(OCCCCc2c(C)n[nH]c2C)c1C [SMR000103133] | 4.96 | – |
| CCn1c(-c2cccc(Cl)c2)n[nH]c1=S [SMR000104244] | > 95 | – |
| CC1(C)CC(=O)C(=CNc2ccc3[nH]ncc3c2)C(=O)C1 [SMR000111453] | 5.07 | – |
| CN=C(NC#N)SCC(=O)c1ccc(Cl)cc1Cl [[2-(2,4-dichlorophenyl)-2-oxidanylidene-ethyl] N-cyano-N'-methyl-carbamimidothioate] | 4.55 | – |
